Data on 59 molecules can be found in patent US20230126310A1 (priority 2020, published 2023).

This test deals with SARS-CoV-2. Kind of test: microbe, parasite or virus in culture. As to conditions: Severe acute respiratory syndrome coronavirus 2, Caco-2, 48 h; for inhibition at 10 µM: read-out: % Inh. (% Inhibition of SARS-CoV-2).

Counter-ions that a name gives are not always drawn. Like-named read-outs stand apart in the source and are kept apart here. Numbered stars: 1 amine (or outer) side, 2 acyl side, 3 side chain; on linkers, the order of the positions; unused ones are H or OH. Bridge positions count the residues as written; N and C are the ends. Square brackets hold non-standard residues; d marks the D form. Peptide text beside a SMILES is read from it. I, II: the chains in the order shown. Actinocin(9to1) = Cc1c2oc3c(C)ccc(C(=O)[*:1])c3nc-2c(C(=O)[*:2])c(N)c1=O; NMeV = CN[C@H](C(=O)O)C(C)C; Sar = CNCC(=O)O

Regarding `CCCCCCCCCCCCCCCC[N+](C)(C)Cc1ccccc1` [Benzyldimethylhexadecylammonium chloride hydrate], the inhibition at 10 µM was found to be 57%.
Consider `CC(C)[C@]12O[C@H]1[C@@H]1O[C@]13[C@]1(O[C@H]1C[C@H]1C4=C(CC[C@@]13C)C(=O)OC4)[C@@H]2O` [Triptolide], for which the inhibition at 10 µM was determined as 90.7%.
On the same count and under the same terms, in the case of `C[C@@H](c1nc(-c2ccc(C#N)cc2)cs1)[C@](O)(Cn1cncn1)c1cc(F)ccc1F` [Isavuconazole] it was 92.8%.
`COC(=O)C1=C(C)NC(C)=C(C(=O)OCCCN2CCC(c3ccccc3)(c3ccccc3)CC2)[C@@H]1c1cccc([N+](=O)[O-])c1` [dexniguldipine]: the IC50 came to 35.8 µM and the inhibition at 10 µM was determined as 97.6%. In addition, the IC50 (read-out: pIC50 (converted)) was 35.5 µM.
In turn, `COc1ccc(Cc2nccc3cc(OC)c(OC)cc23)cc1OC` [PAPAVERINE HYDROCHLORIDE] had an IC50 of 0.95 µM. Besides, the IC50 (read-out: pIC50 (converted)) was 0.955 µM.
Regarding `c1ccc(OCc2ccc(CCCN3CCOCC3)cc2)cc1` [Fomocain], the inhibition at 10 µM is 61.1%.
In the case of `COc1ccc(NC(=O)c2ccc(-c3ccc(-c4noc(C)n4)cc3C)cc2)cc1N1CCN(C)CC1` [GR-127935], the inhibition at 10 µM came out at 53.7%.
The same measure, in the same setting: then `Cc1[nH]cnc1-c1ccc(Cl)cc1` [lofemizole], with 56.3%; and `NC(N)=NCc1cccc(I)c1` [iobenguane], with 86.9%.
For the molecule `O=C(O)CCCCC(=O)O` [adipic-acid], the inhibition at 10 µM is 55.9%.
The same measure, in the same setting: then `COC(=O)C1=C(C)NC(C)=C(C(=O)NCCCN2CCC(c3ccccc3)(c3ccccc3)CC2)C1c1ccc([N+](=O)[O-])cc1` (stereo not drawn) [SNAP-5089], with 72.6%; and `CN1C[C@H](CNC(=O)OCc2ccccc2)C[C@@H]2c3cccc4c3c(cn4C)C[C@H]21` [METERGOLINE], with 54.6%; and `Clc1ccc(C(Cn2ccnc2)OCc2c(Cl)cccc2Cl)c(Cl)c1` (stereo not drawn) [Isoconazole nitrate (Travogen), Isoconazole nitrate], with 75.9%.
`C[C@]12CC[C@H](O)C[C@H]1CC[C@@H]1[C@@H]2CC[C@]2(C)[C@@H](C3=CC(=O)OC3)CC[C@]12O` [digitoxigenin]: the inhibition at 10 µM came to 60%.
As for `C[S+]([O-])CCCCN=C=S` (stereo not drawn) [sulforaphane], the inhibition at 10 µM came out at 94.2%.
Take `O=C(OCC(COC(=O)c1cccnc1)(COC(=O)c1cccnc1)COC(=O)c1cccnc1)c1cccnc1` [niceritrol]: the inhibition at 10 µM is 50.1%.
Same read-out and setting: in the case of `OC[C@H]1O[C@@H](n2cnc3c(NC4CCCC4)nc(Cl)nc32)[C@H](O)[C@@H]1O` [2-chloro-N6-cyclopentyladenosine] it was 57.7%; in that of `CS[C@H]1SC[C@H]2C(=O)N(C)[C@@H](C(C)C)C(=O)OC[C@@H](NC(=O)c3cnc4ccccc4n3)C(=O)N[C@@H](C)C(=O)N(C)[C@@H]1C(=O)N(C)[C@@H](C(C)C)C(=O)OC[C@@H](NC(=O)c1cnc3ccccc3n1)C(=O)N[C@@H](C)C(=O)N2C` [Echinomycin], 77.5%; in that of `O=C(/C=C/c1cccnc1)NCCCCC1CCN(C(=O)c2ccccc2)CC1` [FK-866], 50.9%.
As to `O=C(O)CCCO` [SODIUM OXYBATE], the inhibition at 10 µM stood at 57.3%.
On the same count and under the same terms, in the case of `Cc1cc(N)c2ccccc2[n+]1CCCCCCCCCC[n+]1c(C)cc(N)c2ccccc21` [DEQUALINIUM CHLORIDE] it was 65.6%; in that of `O=C(Nc1cc(Cl)cc(Cl)c1O)c1c(O)c(Cl)cc(Cl)c1Cl` [OXYCLOZANIDE], 94.4%.
As to `NC(=O)N1C(=O)/C(=C(\O)c2cccs2)c2cc(Cl)ccc21` [tenidap], the inhibition at 10 µM is 75.2%.
Take `Clc1ccc(COC(Cn2ccnc2)c2ccc(Cl)cc2Cl)cc1` (stereo not drawn) [ECONAZOLE NITRATE]: the inhibition at 10 µM stood at 87.3%.
Turning to `CNC(=O)c1cccc(-c2ccc3c(N4CCOC[C@@H]4C)nc(N4CCOC[C@@H]4C)nc3n2)c1` [Vistusertib (AZD2014), Vistusertib], the inhibition at 10 µM was found to be 112%.
On the same count and under the same terms, in the case of `Nc1nc(Cl)nc2c1ncn2[C@@H]1O[C@H](CO)[C@@H](O)[C@H]1O` [2-chloroadenosine] it was 72.5%.
Same read-out and setting: in the case of `CO[C@H]1C[C@H](O[C@@H]2/C(C)=C/C[C@@H]3C[C@@H](C[C@]4(CC[C@H](C)[C@@H](C5CCCCC5)O4)O3)OC(=O)[C@@H]3C=C(C)/C(=N/O)[C@H]4OC/C(=C\C=C\[C@@H]2C)[C@]43O)O[C@@H](C)[C@@H]1O` [SELAMECTIN] it was 68.2%; in that of `O=CC=Cc1ccccc1` [cinnamaldehyde], 62.3%; in that of `C=C[C@H]1CN2CC[C@H]1C[C@H]2[C@H](OC(=O)OCC)c1ccnc2ccc(OC)cc12` [QUININE ETHYL CARBONATE], 59.1%.
The same measure, in the same setting: in the case of `CNC(=O)c1cc(Oc2ccc(NC(=O)Nc3cc(C(C)(C)C)nn3-c3ccc4ncccc4c3)c(F)c2)ccn1` [DCC-2036 (Rebastinib), Rebastinib] it was 70%; in that of `C1CCC(C(CC2CCCCN2)C2CCCCC2)CC1` (stereo not drawn) [PERHEXILINE MALEATE], 55.4%.
With `COCC(=O)O[C@]1(CCN(C)CCCc2nc3ccccc3[nH]2)CCc2cc(F)ccc2[C@@H]1C(C)C` [mibefradil], the inhibition at 10 µM worked out at 52.4%.
Same read-out and setting: in the case of `Cc1c(CN2CCN(C(=O)[C@H](C)O)CC2)sc2c(N3CCOCC3)nc(-c3cnc(N)nc3)nc12` [Apitolisib (GDC-0980, RG7422), Apitolisib] it was 102%; in that of `Cc1nc(Nc2ccc(F)cc2)nc(N2CCc3ccccc3C2C)c1C` (stereo not drawn) [Revaprazan Hydrochloride], 90.9%.
Same read-out and setting: then `Cc1c2oc3c(C)ccc(C(=O)N[C@@H]4C(=O)N[C@H](C(C)C)C(=O)N5CCC[C@H]5C(=O)N(C)CC(=O)N(C)[C@@H](C(C)C)C(=O)O[C@@H]4C)c3nc-2c(C(=O)N[C@@H]2C(=O)N[C@H](C(C)C)C(=O)N3CCC[C@H]3C(=O)N(C)CC(=O)N(C)[C@@H](C(C)C)C(=O)O[C@@H]2C)c(N)c1=O` [DACTINOMYCIN] (I: T[dV]P[Sar][NMeV] / II: T[dV]P[Sar][NMeV]; ester I:1-I:C, II:1-II:C; linker I:N-II:N via Actinocin(9to1)), with 74.6%.
Regarding `O=c1[nH]c2ccccc2n1C1CCN(CCOc2ccccc2)CC1` [oxiperomide], the inhibition at 10 µM worked out at 77.9%.
The same measure, in the same setting: in the case of `COc1cc2nc(N3CCN(C(=O)c4ccco4)CC3)nc(N)c2cc1OC` [PRAZOSIN HYDROCHLORIDE] it was 58%; in that of `CN(C)CC/C=C1/c2ccccc2Sc2ccc(Cl)cc21` [CHLORPROTHIXENE HYDROCHLORIDE], 55.6%.
For `Cc1ccc(C(=O)N(CCCN)[C@@H](c2nc3cc(Cl)ccc3c(=O)n2Cc2ccccc2)C(C)C)cc1` [Ispinesib (SB-715992), Ispinesib], the inhibition at 10 µM amounted to 91.9%.
The same measure, in the same setting: in the case of `O=C(Cn1ccnc1[N+](=O)[O-])NCCO` [etanidazole] it was 57.3%; in that of `OC1(c2ccc(Cl)c(C(F)(F)F)c2)CCN(CCCC(c2ccc(F)cc2)c2ccc(F)cc2)CC1` [PENFLURIDOL], 85.9%; in that of `COc1ccc(CCc2nc3cc(-c4c(C)noc4C)ccc3n2C[C@H](C)N2CCOCC2)cc1Cl` [SGC-CBP30], 59.2%.
On the same count and under the same terms, then `CC(=O)Nc1cccc(-n2c(=O)n(C3CC3)c(=O)c3c(Nc4ccc(I)cc4F)n(C)c(=O)c(C)c32)c1` [Trametinib], with 76.6%; and `CC(=O)OCC(=O)[C@@]1(O)CC[C@H]2[C@@H]3CCC4=CC(=O)C=C[C@]4(C)[C@H]3[C@@H](O)C[C@@]21C` [PREDNISOLONE ACETATE], with 60%; and `Oc1cccc(-c2c3nc(c(-c4cccc(O)c4)c4ccc([nH]4)c(-c4cccc(O)c4)c4nc(c(-c5cccc(O)c5)c5ccc2[nH]5)CC4)C=C3)c1` [Temoporfin], with 85.9%.
Same read-out and setting: then `CCCCCCCCCCCCCCCC[N+](C)(C)CCN(Cc1ccc(OC)cc1)c1ncccn1` [thonzonium bromide], with 76.4%; and `CCN(CC)CCO[C@H]1CC[C@@]2(C)C(=CC[C@@H]3[C@@H]2CC[C@]2(C)C(=O)CC[C@@H]32)C1` [U-18666A], with 77.4%; and `CC(=O)OCC(=O)[C@@]1(O)CC[C@H]2[C@@H]3CCC4=CC(=O)C=C[C@]4(C)[C@@]3(F)[C@@H](O)C[C@@]21C` [isoflupredone-acetate], with 80.6%.
For `NCCNC(=O)c1ccc(Cl)cn1` [lazabemide], the inhibition at 10 µM amounted to 67.9%.
`CNC(=O)[C@@H](NC(=O)[C@H](CC(C)C)[C@H](O)C(=O)NO)C(C)(C)C` [Marimastat]: the inhibition at 10 µM was 68.7%.
`Cc1cc(C(C#N)c2ccc(Cl)cc2)c(Cl)cc1NC(=O)c1cc(I)cc(I)c1O` (stereo not drawn) [CLOSANTEL]: the inhibition at 10 µM was determined as 80%.
`C[C@]1(O)C[C@@H](c2nc(-c3ccc4ccc(-c5ccccc5)nc4c3)c3c(N)nccn32)C1` [OSI-906 (Linsitinib), Linsitinib]: the IC50 stood at 24.9 µM and the inhibition at 10 µM was determined as 110%. Besides, for the setting “read-out: pIC50 (converted)”, the IC50 was 25.1 µM.
Consider `Cn1c(=O)n(-c2ccc(C(C)(C)C#N)cc2)c2c3cc(-c4cnc5ccccc5c4)ccc3ncc21` [Dactolisib (BEZ235, NVP-BEZ235), Dactolisib], for which the inhibition at 10 µM is 91.8%.
Take `CCCCNc1cc(C(=O)O)cc(S(N)(=O)=O)c1Oc1ccccc1` [BUMETANIDE]: the inhibition at 10 µM was 87.5%.
Same read-out and setting: then `CC(=O)OCC1=C(C(=O)O)N2C(=O)[C@@H](NC(=O)Cc3cccs3)[C@H]2SC1` [Cephalothin], with 53.7%; and `Cn1cnc2c1c(=O)[nH]c(=O)n2C` [THEOBROMINE], with 52.4%.
With `N#CC(c1ccnc(OCc2ccc(CN3CCOCC3)cc2)n1)c1nc2ccccc2s1` (stereo not drawn) [Bentamapimod], the IC50 stood at 5.12 µM and the inhibition at 10 µM is 78.4%. Under “read-out: pIC50 (converted)”, the IC50 was 5.13 µM.
Consider `c1ccc(-c2ccc(C(c3ccccc3)n3ccnc3)cc2)cc1` (stereo not drawn) [BIFONAZOLE], for which the inhibition at 10 µM was 70.8%.
On to `COc1cc(N2CCC(N3CCN(C)CC3)CC2)ccc1Nc1ncnc(Nc2ccccc2S(=O)(=O)C(C)C)n1` [ASP3026], for which the inhibition at 10 µM worked out at 62.2%.

One may read the inhibition as the change of the read-out against control, counted positive when it falls.
